{"source": "patent US6166051A", "about": "“Thiol derivatives with metallopeptidase (ACE/NEP) inhibitory activity” (Zambon Group S.p.A., priority 1995, dated 2000)", "key": {"[1]": {"target": "T1, ACE (angiotensin converting enzyme) (Oryctolagus cuniculus, UniProt P12822)", "T1 construct": "purchased SIGMA; host or cells: rabbit lung", "T1 sequence (P12822 34-1310)": "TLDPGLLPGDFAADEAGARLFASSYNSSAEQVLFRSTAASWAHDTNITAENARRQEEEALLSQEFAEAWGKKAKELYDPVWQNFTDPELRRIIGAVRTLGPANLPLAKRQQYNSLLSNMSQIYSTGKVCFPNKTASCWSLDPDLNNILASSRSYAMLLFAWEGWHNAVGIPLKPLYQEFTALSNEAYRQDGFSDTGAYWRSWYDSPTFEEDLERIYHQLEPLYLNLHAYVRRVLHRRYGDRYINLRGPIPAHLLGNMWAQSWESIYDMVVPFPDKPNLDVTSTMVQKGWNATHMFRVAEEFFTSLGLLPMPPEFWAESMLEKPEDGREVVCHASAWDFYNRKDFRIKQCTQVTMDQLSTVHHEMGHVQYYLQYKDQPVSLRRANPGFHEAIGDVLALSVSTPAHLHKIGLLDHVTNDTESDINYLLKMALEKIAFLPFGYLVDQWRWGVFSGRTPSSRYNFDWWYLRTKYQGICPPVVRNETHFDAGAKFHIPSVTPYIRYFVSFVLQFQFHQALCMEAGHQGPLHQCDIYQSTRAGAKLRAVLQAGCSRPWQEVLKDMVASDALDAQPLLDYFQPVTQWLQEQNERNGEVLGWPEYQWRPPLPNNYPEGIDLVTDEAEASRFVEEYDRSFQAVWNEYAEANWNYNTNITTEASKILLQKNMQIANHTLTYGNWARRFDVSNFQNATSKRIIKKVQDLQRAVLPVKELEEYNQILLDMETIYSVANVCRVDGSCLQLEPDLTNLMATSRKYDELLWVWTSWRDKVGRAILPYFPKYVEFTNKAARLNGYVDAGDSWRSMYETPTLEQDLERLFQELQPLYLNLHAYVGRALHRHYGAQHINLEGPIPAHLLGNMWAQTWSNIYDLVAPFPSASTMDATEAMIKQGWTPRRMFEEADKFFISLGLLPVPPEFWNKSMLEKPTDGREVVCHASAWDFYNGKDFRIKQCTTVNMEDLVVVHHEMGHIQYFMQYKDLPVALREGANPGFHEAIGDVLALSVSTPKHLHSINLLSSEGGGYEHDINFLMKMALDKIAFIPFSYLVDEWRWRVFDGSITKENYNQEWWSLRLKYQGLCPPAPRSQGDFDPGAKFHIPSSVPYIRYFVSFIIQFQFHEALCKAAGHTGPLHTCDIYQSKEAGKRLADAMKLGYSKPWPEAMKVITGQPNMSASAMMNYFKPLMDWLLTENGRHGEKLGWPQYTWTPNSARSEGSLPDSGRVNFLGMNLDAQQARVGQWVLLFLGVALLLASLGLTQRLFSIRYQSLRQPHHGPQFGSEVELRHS", "assay": "ACE-inhibitory activity (FAPGG substrate, absorbance at 340 nm)", "type": "biochemical", "conditions": "in vitro, ACE purified from rabbit lung, 37° C.", "experimental": "b) ACE-inhibitory Activity\n[…] of ACE (250 μmU/ml purified by lung rabbit, EC 3.4.15.1 SIGMA) were preincubated with 50 μl of the compound of formula I or of the comparison compound or related vehicle in thermostated cuvettes at 37° C.\nThe reaction was started by adding 500 μl of furylacryloylphenylalanylglycylglycine 0.8 mM (FAPGG-SIGMA).\nContemporaneously, by using a Beckman DU-50 spectrophotometer provided with a program for calculating delta A/minutes and regression coefficients of the enzyme kinetics curyes, the absorbance at 340 nm was recorded in continuo for 5 minutes.\nThe percentage of inhibition in the preparations incubated with the compounds of formula I or with the comparative compounds with respect to the preparations incubated with the vehicle was expressed as IC50 (nM) value."}, "[2]": {"target": "T2, NEP (neutral endopeptidase enzyme) (Rattus norvegicus, UniProt P07861)", "T2 construct": "from tissue; host or cells: kidney cortex membranes of male Sprague-Dawley rats", "T2 sequence (P07861 1-750)": "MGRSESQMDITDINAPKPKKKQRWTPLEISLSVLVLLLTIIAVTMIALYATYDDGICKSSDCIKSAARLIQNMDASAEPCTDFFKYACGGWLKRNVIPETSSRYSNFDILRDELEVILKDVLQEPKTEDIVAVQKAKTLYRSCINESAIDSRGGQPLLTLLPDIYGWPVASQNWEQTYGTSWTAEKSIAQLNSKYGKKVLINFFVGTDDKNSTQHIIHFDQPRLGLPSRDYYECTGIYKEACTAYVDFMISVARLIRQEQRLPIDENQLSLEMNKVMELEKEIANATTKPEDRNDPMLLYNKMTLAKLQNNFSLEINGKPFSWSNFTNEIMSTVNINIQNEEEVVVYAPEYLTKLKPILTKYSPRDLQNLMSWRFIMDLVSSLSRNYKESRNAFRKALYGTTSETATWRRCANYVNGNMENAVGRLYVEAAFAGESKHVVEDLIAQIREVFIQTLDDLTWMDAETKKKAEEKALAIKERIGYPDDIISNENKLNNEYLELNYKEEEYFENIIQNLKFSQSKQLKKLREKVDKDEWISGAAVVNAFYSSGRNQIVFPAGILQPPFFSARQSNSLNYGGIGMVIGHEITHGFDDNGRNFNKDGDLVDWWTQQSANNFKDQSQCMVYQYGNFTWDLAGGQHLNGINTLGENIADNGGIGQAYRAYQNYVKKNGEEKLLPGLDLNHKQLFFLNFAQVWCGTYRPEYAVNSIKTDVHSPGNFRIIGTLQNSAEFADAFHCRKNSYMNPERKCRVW", "assay": "NEP-inhibitory activity in rat kidney cortex membranes ([3H][Leu5]-enkephaline degradation)", "type": "biochemical", "conditions": "in vitro, [3H][Leu5]-enkephaline 15 nM, 20 minutes at 30° C., pH 7.4", "experimental": "a) NEP-inhibitory Activity\nThe NEP-inhibitory activity was evaluated in rat kidney cortex membranes prepared according to the procedure described by T. Maeda et al. in Biochim Biophys. Acta 1983, 731(1), 115-120.\nKidneys were removed from male Sprague-Dawley rats weighing approximately 300 g and kept at 4° C.\nKidney cortex was carefully removed, finely minced and suspended into a homogenization buffer (10 mM sodium phosphate pH 7.4 containing 1 mM MgCl2, 30 mM NaCl, 0.02% NaN3) 1:15 weight/volume.\nThe tissue was then cold homogenized for 30 seconds using an Ultra-Turrax homogenizer.\nApproximately 10 ml of homogenate were layered over 10 ml of sucrose (41% weight/volume) and centrifuged at 31200 rpm for 30 minutes at 4° C. in a fixed angle rotor.\nThe membranes were collected from the buffer/sucrose interface, washed twice with 50 mM TRIS/HCl buffer (pH 7.4) and resuspended into the same buffer for the storage of aliquots at -80° C. until use.\nThe NEP-inhibitory activity was evaluated according to the method described by C. Llorens et aL, in Eur. J. Pharmacol., 69, (1981), 113-116, as reported hereinafter.\nAliquots of the membrane suspension prepared as above described (concentration 5 μg/ml of proteins) were preincubated in the presence of an aminopeptidase inhibitor (Bestatin--1 mM) for 10 minutes at 30° C. [^3 H][Leu^5 ]-enkephaline (15 nM) and buffer TRIS/HCl pH 7.4 (50 mM) were added in order to obtain a final volume of 100 μl.\nThe enzymatic reaction was stopped by adding HCl 0.1M (100 μl) after 20 minutes of incubation at 30° C.\nThe formation of the metabolite [^3 H]Tyr-Gly-Gly was quantified, after separation of the unreacted substrate by chromatography on polystyrene columns (Porapak Q), by measuring the relative radioactivity through liquid scintillation.\nThe percentage of inhibition of the metabolite formation in the membrane preparations treated with the compounds of formula I and with the comparative compounds with respect to the untreated membrane preparations was expressed as IC50 (nM) value."}}, "data": [{"smiles": "O=C(N[C@@H](Cc1cccs1)C(=O)O)C(CS)Cc1ccccc1", "note": "(stereo partly drawn) [compound 5, N-(2-phenylmethyl-3-mercaptopropionyl)-(2-thienyl)-L-alanine]", "values": [{"measurement": "IC50", "setting": "[1]", "value": 6.5, "unit": "nM"}, {"measurement": "IC50", "setting": "[2]", "value": 5.5, "unit": "nM"}]}, {"smiles": "O=C(N[C@@H](Cc1ccccn1)C(=O)O)C(CS)Cc1ccccc1", "note": "(stereo partly drawn) [compound 6, N-(^2-phenylmethyl-3-mercaptopropionyl)-(2-pyridyl)-L-alanine]", "values": [{"measurement": "IC50", "setting": "[1]", "value": 23, "unit": "nM"}, {"measurement": "IC50", "setting": "[2]", "value": 7.1, "unit": "nM"}]}, {"smiles": "O=C(N[C@@H](Cc1cscn1)C(=O)O)C(CS)Cc1ccccc1", "note": "(stereo partly drawn) [compound 4, N-(2-phenylmethyl-3-mercaptopropionyl)-(4-thiazolyl)-L-alanine]", "values": [{"measurement": "IC50", "setting": "[1]", "value": 12, "unit": "nM"}, {"measurement": "IC50", "setting": "[2]", "value": 4.7, "unit": "nM"}]}, {"smiles": "C[C@H](CS)C(=O)N1CCC[C@H]1C(=O)O", "note": "[Captopril, reference compound]", "values": [{"measurement": "NEP-inhibitory activity IC50 (nM)", "setting": "[2]", "value": "not active"}]}]}
